Where two headings read alike, the source gives them in different places. Square brackets hold non-standard residues; d marks the D form. Peptide text beside a SMILES is read from it.

Here are results for 17 molecules from patent publication US10280198B2, “Therapeutic agents for reducing parathyroid hormone levels” (KAI PHARMACEUTICALS, INC., priority 2009, dated 2019).

One data set deals with plasma PTH. The experiment in a line: In vivo PTH lowering after IV bolus in isoflurane-anesthetized normal Sprague Dawley rats. Also noted: species or system rat. The note with it: Table 6; normal rats, AUC 1-4 h. Here is the method: The peptides were administered intravenously at a dose of 0.5 mg/kg into isoflurane-anesthetized normal Sprague Dawley rats. A control group of rats was treated with saline. Blood was drawn prior to dosing and every hour for 4 hours. Rats were maintained under isoflurane anesthesia for the entire study. […] Percent PTH reduction was calculated according to the following formula: AUCcmpd treated/AUCsaline control*100.
An intravenous (IV) bolus of saline was used as a control. Plasma (K2EDTA) PTH levels were assessed prior to dosing and 1, 2, 3 and 4 hours after dosing. Rats were maintained under isoflurane anesthesia for the entire study. […] In FIG. 2B, PTH is shown as percent of the baseline pre-dose value.
A series of compounds having an L-amino acid residue substituted for a D-amino acid residue were prepared. The compounds were administered as an IV bolus to normal Sprague Dawley rats at a dose of 0.5 mg/kg. An intravenous (IV) bolus of saline was used as a control. […] Rats were maintained under isoflurane anesthesia for the entire study.

Data set [1] relates to rat peritoneal mast cells. Put plainly: In vitro histamine induction in rat peritoneal mast cells. The class given is cell-based. The protocol: To further evaluate the relationship between compound structure and histamine release, a series of compounds was prepared and assessed for their ability to trigger induction of histamine in an in vitro assay using rat peritoneal mast cells. In this assay, compounds are incubated at 10 μM for 15 minutes at 37° C. with cells isolated from peritoneal lavage of SD rats. Following incubation, cell medium is collected and histamine is determined.
Accordingly, and as can be appreciated in view of the PTH data and the histamine data described hereinabove, in one embodiment, a compound that has activity to decrease PTH level in a subject in the absence of a histamine response is contemplated. In certain embodiments, absence of a histamine response intends a dose of the compound that produces a less than 10-fold, more preferably 8-fold, still more preferably 5-fold, and even still more preferably 3-fold, increase in histamine, measured in vitro in an assay as described herein, where the fold change is determined based on histamine levels before incubation with the compound and after 15 minutes incubation with compound. In a specific embodiment, the histamine response is determined in an in vitro assay using rat peritoneal mast cells isolated from peritoneal lavage of normal Sprague Dawley rats, and where the fold change is determined based on histamine levels before incubation with the compound and after 15 minutes incubation with compound. In the studies conducted herein, the in vitro evaluation of histamine release was performed using isolated rat peritoneal mast cells isolated by peritoneal lavage using cold HBSS+25 mM HEPES pH 7.4 containing heparin (5 u/mL). Cells were washed twice in stimulation buffer (HBSS+25 mM HEPES pH 7.4) and incubated with 10 μM of compound in stimulation buffer (HBSS+25 mM HEPES pH 7.4) for 15 minutes in a 96-well plate ([…]) at 37° C. Cell supernatant was analyzed for histamine using histamine EIA kit (Cayman #589651).
For in vitro evaluation of histamine release, isolated rat peritoneal mast cells were isolated by performing peritoneal lavage using cold HBSS+25 mM HEPES pH 7.4 containing heparin (5 u/mL). Cells were washed twice in stimulation buffer (HBSS+25 mM HEPES pH 7.4) and incubated with 10 μM of compound in stimulation buffer (HBSS+25 mM HEPES pH 7.4) for 15 minutes in a 96-well plate (10^6/well) at 37° C. Cell supernatant was analyzed for histamine using histamine EIA kit (Cayman #589651).

Consider `CC(=O)N[C@H](CS)C(=O)N[C@H](CC(C)C)C(=O)N[C@H](CCCNC(=N)N)C(=O)N[C@H](CCCNC(=N)N)C(=O)N[C@H](CCCNC(=N)N)C(=O)N[C@H](C)C(=O)N[C@H](CCCNC(=N)N)C(N)=O` [SEQ ID NO: 98, Ac-clrrrar-NH2] (Ac-[dC][dL][dR][dR][dR][dA][dR]-NH2), for which the “0.5 mg/kg IV bolus % PTH AUC of saline control” value (from here on “0.5 mg/kg IV bolus % PTH AUC”) in the data set with plasma PTH amounted to 26%. The “Histamine in vitro Fold change of non-treated at 10 uM” value in data set [1] came to 2.2 fold.
The matching figures for `CC(=O)N[C@H](CS)C(=O)N[C@H](CCC(N)=O)C(=O)N[C@H](CCCNC(=N)N)C(=O)N[C@H](CCCNC(=N)N)C(=O)N[C@H](CCCNC(=N)N)C(=O)N[C@H](C)C(=O)N[C@H](CCCNC(=N)N)C(N)=O` [SEQ ID NO: 99, Ac-cqrrrar-NH2] (Ac-[dC][dQ][dR][dR][dR][dA][dR]-NH2): 24% and 1.9 fold.
The matching figures for `CC(=O)N[C@H](CS)C(=O)N[C@@H](C(=O)N[C@H](CCCNC(=N)N)C(=O)N[C@H](CCCNC(=N)N)C(=O)N[C@H](CCCNC(=N)N)C(=O)N[C@H](C)C(=O)N[C@H](CCCNC(=N)N)C(N)=O)[C@H](C)O` [SEQ ID NO: 100, Ac-ctrrrar-NH2] (Ac-[dC][dT][dR][dR][dR][dA][dR]-NH2): 23% and 1.1 fold.
As for `CC(=O)N[C@H](CS)C(=O)N[C@H](CO)C(=O)N[C@H](CCCNC(=N)N)C(=O)N[C@H](CCCNC(=N)N)C(=O)N[C@H](CCCNC(=N)N)C(=O)N[C@H](C)C(=O)N[C@H](CCCNC(=N)N)C(N)=O` [SEQ ID NO: 102, Ac-csrrrar-NH2] (Ac-[dC][dS][dR][dR][dR][dA][dR]-NH2), in the data set on plasma PTH, the “0.5 mg/kg IV bolus % PTH AUC” value is given as 13%. For the same molecule, in data set [1], the “Histamine in vitro Fold change of non-treated at 10 uM” value was determined as 0.9 fold.
On to `CC(=O)N[C@H](CS)C(=O)N[C@H](Cc1c[nH]cn1)C(=O)N[C@H](CCCNC(=N)N)C(=O)N[C@H](CCCNC(=N)N)C(=O)N[C@H](CCCNC(=N)N)C(=O)N[C@H](C)C(=O)N[C@H](CCCNC(=N)N)C(N)=O` [SEQ ID NO: 103, Ac-chrrrar-NH2] (Ac-[dC][dH][dR][dR][dR][dA][dR]-NH2), for which the “0.5 mg/kg IV bolus % PTH AUC” value with plasma PTH was 1%. The “Histamine in vitro Fold change of non-treated at 10 uM” value in data set [1] was found to be 1.6 fold.
The matching figures for `CC(=O)N[C@H](CS)C(=O)N[C@H](Cc1ccccc1)C(=O)N[C@H](CCCNC(=N)N)C(=O)N[C@H](CCCNC(=N)N)C(=O)N[C@H](CCCNC(=N)N)C(=O)N[C@H](C)C(=O)N[C@H](CCCNC(=N)N)C(N)=O` [SEQ ID NO: 104, Ac-cfrrrar-NH2] (Ac-[dC][dF][dR][dR][dR][dA][dR]-NH2): 0% and 6.8 fold.
The matching figures for `CC(=O)N[C@H](CS)C(=O)N[C@H](CCCNC(=N)N)C(=O)N[C@H](CCCNC(=N)N)C(=O)NCC(=O)N[C@H](CCCNC(=N)N)C(=O)N[C@H](C)C(=O)N[C@H](CCCNC(=N)N)C(N)=O` [SEQ ID NO: 105, Ac-crrGrar-NH2] (Ac-[dC][dR][dR]G[dR][dA][dR]-NH2): 69% and 1.8 fold.
Consider `CC(=O)N[C@H](CS)C(=O)N[C@H](CCCNC(=N)N)C(=O)N[C@H](CCCNC(=N)N)C(=O)N1CCC[C@@H]1C(=O)N[C@H](CCCNC(=N)N)C(=O)N[C@H](C)C(=O)N[C@H](CCCNC(=N)N)C(N)=O` [SEQ ID NO: 106, Ac-crrprar-NH2] (Ac-[dC][dR][dR][dP][dR][dA][dR]-NH2), for which the “0.5 mg/kg IV bolus % PTH AUC” value in the data set on plasma PTH was found to be 68%. Also, in data set [1], the “Histamine in vitro Fold change of non-treated at 10 uM” value is on record as 1.1 fold.
As for `CC(=O)N[C@H](CS)C(=O)N[C@H](CCCNC(=N)N)C(=O)N[C@H](CCCNC(=N)N)C(=O)N[C@H](CCC(=O)O)C(=O)N[C@H](CCCNC(=N)N)C(=O)N[C@H](C)C(=O)N[C@H](CCCNC(=N)N)C(N)=O` [SEQ ID NO: 107, Ac-crrerar-NH2] (Ac-[dC][dR][dR][dE][dR][dA][dR]-NH2), in the data set with plasma PTH, the “0.5 mg/kg IV bolus % PTH AUC” value came to 56%. The “Histamine in vitro Fold change of non-treated at 10 uM” value in data set [1] (Table 9, 10 μM, 15 minutes, 37° C.) was 0.6 fold.
Turning to `CC(=O)N[C@H](CS)C(=O)N[C@H](CCCNC(=N)N)C(=O)N[C@H](CCCNC(=N)N)C(=O)N[C@@H](C(=O)N[C@H](CCCNC(=N)N)C(=O)N[C@H](C)C(=O)N[C@H](CCCNC(=N)N)C(N)=O)[C@H](C)O` [SEQ ID NO: 108, Ac-crrtrar-NH2] (Ac-[dC][dR][dR][dT][dR][dA][dR]-NH2), the “0.5 mg/kg IV bolus % PTH AUC” value in the data set on plasma PTH is reported as 13%. For the same molecule, the “Histamine in vitro Fold change of non-treated at 10 uM” value in data set [1] is on record as 1.2 fold.
For `CC(=O)N[C@H](CS)C(=O)N[C@H](CCCNC(=N)N)C(=O)N[C@H](CCCNC(=N)N)C(=O)N[C@H](Cc1c[nH]cn1)C(=O)N[C@H](CCCNC(=N)N)C(=O)N[C@H](C)C(=O)N[C@H](CCCNC(=N)N)C(N)=O` [SEQ ID NO: 109, Ac-crrhrar-NH2] (Ac-[dC][dR][dR][dH][dR][dA][dR]-NH2) the same measures were 9% and 2.3 fold.
The matching figures for `CC(=O)N[C@H](CS)C(=O)N[C@H](CCCNC(=N)N)C(=O)N[C@H](CCCNC(=N)N)C(=O)N[C@H](Cc1ccccc1)C(=O)N[C@H](CCCNC(=N)N)C(=O)N[C@H](C)C(=O)N[C@H](CCCNC(=N)N)C(N)=O` [SEQ ID NO: 110, Ac-crrfrar-NH2] (Ac-[dC][dR][dR][dF][dR][dA][dR]-NH2): 6% and 6.2 fold.
For `CC(=O)N[C@H](CS)C(=O)N[C@H](CCCNC(=N)N)C(=O)N[C@H](CCCNC(=N)N)C(=O)N[C@H](CO)C(=O)N[C@H](CCCNC(=N)N)C(=O)N[C@H](C)C(=O)N[C@H](CCCNC(=N)N)C(N)=O` [SEQ ID NO: 111, Ac-crrsrar-NH2] (Ac-[dC][dR][dR][dS][dR][dA][dR]-NH2) the same measures were 4% and 2.0 fold.
With `CC(=O)N[C@H](CS)C(=O)N[C@H](CCCNC(=N)N)C(=O)N[C@H](CCCNC(=N)N)C(=O)N[C@H](CCC(N)=O)C(=O)N[C@H](CCCNC(=N)N)C(=O)N[C@H](C)C(=O)N[C@H](CCCNC(=N)N)C(N)=O` [SEQ ID NO: 112, Ac-crrqrar-NH2] (Ac-[dC][dR][dR][dQ][dR][dA][dR]-NH2), the “0.5 mg/kg IV bolus % PTH AUC” value in the data set with plasma PTH is recorded as 4%. Also, the “Histamine in vitro Fold change of non-treated at 10 uM” value in data set [1] came out at 1.2 fold.
With `CC(=O)N[C@H](CS)C(=O)N[C@H](CCCNC(=N)N)C(=O)N[C@H](CCCNC(=N)N)C(=O)N[C@@H](C(=O)N[C@H](CCCNC(=N)N)C(=O)N[C@H](C)C(=O)N[C@H](CCCNC(=N)N)C(N)=O)C(C)C` [SEQ ID NO: 113, Ac-crrvrar-NH2] (Ac-[dC][dR][dR][dV][dR][dA][dR]-NH2), the “0.5 mg/kg IV bolus % PTH AUC” value in the data set with plasma PTH amounted to 3%. Also, the “Histamine in vitro Fold change of non-treated at 10 uM” value in data set [1] came to 1.9 fold.
For `CC(=O)N[C@H](CS)C(=O)N[C@H](CCCNC(=N)N)C(=O)N[C@H](CCCNC(=N)N)C(=O)N[C@H](CC(C)C)C(=O)N[C@H](CCCNC(=N)N)C(=O)N[C@H](C)C(=O)N[C@H](CCCNC(=N)N)C(N)=O` [SEQ ID NO: 114, Ac-crrlrar-NH2] (Ac-[dC][dR][dR][dL][dR][dA][dR]-NH2), the “0.5 mg/kg IV bolus % PTH AUC” value in the data set on plasma PTH was 1%. Besides, the “Histamine in vitro Fold change of non-treated at 10 uM” value in data set [1] was 4.5 fold.
On to `CC[C@@H](C)[C@@H](NC(=O)[C@@H](CCCNC(=N)N)NC(=O)[C@@H](CCCNC(=N)N)NC(=O)[C@@H](CS)NC(C)=O)C(=O)N[C@H](CCCNC(=N)N)C(=O)N[C@H](C)C(=O)N[C@H](CCCNC(=N)N)C(N)=O` [SEQ ID NO: 115, Ac-crrirar-NH2] (Ac-[dC][dR][dR][dI][dR][dA][dR]-NH2), for which the “0.5 mg/kg IV bolus % PTH AUC” value in the data set on plasma PTH stood at 0%. For the same molecule, the “Histamine in vitro Fold change of non-treated at 10 uM” value in data set [1] is 3.4 fold.
